The source of these data is doi:10.1101/2020.06.07.139295v2 (biorxiv, 2020).

The target of test [1] is T1, TTLL6 (51-502) (Mus musculus, UniProt A4Q9E8).
T1 sequence (A4Q9E8 51-502): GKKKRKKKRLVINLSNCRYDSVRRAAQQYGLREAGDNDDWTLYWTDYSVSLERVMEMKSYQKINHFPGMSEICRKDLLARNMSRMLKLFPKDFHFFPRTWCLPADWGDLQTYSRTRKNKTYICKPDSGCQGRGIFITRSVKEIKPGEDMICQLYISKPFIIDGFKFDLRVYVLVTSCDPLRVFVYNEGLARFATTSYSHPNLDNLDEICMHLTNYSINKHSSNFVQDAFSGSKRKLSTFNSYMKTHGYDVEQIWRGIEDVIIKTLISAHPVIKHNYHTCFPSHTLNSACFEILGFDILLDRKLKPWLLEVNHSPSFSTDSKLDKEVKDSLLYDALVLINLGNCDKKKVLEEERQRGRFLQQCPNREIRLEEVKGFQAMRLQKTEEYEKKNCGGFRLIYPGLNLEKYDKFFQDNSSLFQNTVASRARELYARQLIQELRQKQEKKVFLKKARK
The test can be described thus: [3H]-glutamate transfer to taxol-stabilized brain microtubules, filter assay. It counts as biochemical.

The target of test [2] is T2, TTLL6 (51-502) (Mus musculus, UniProt A4Q9E8, C179A/H362I/Q180R).
T2 sequence (A4Q9E8 51-502 C179A/Q180R/H362I): T1 sequence (A4Q9E8 51-502) with C129A, Q130R, H312I
The description is as above. It counts as biochemical.

Numbering of substitutions follows the chain as printed.

The term IC50 denotes the midpoint of a concentration-inhibition curve. For the compound `CCNC(=O)[C@H](CCP(=O)(O)CC(CCC(=O)O)C(=O)O)NC(C)=O` (mixture of isomers) [initiation analog], the IC50 turned out to be 6.1 µM against TTLL6 (51-502) [1] and 3.5 ± 0.2 µM against TTLL6 (51-502) [2].

For `CC(=O)N[C@@H](CCP(=O)(O)CC(CCC(=O)O)C(=O)O)C(=O)O` (mixture of isomers) [γ-elongation analog], the IC50 is approximately 6 µM against TTLL6 (51-502) [1] and 2.5 ± 0.1 µM against TTLL6 (51-502) [2].

With `CC(=O)NC(CCC(=O)O)P(=O)(O)CC(CCC(=O)O)C(=O)O` (mixture of isomers) [α-elongation analog], the IC50 against TTLL6 (51-502) [1] came out at 0.6 ± 0.05 µM; on TTLL6 (51-502) [2], 5.4 ± 0.8 µM.
